# Entries after “also recorded” stand apart in the source; their conditions may differ. Where two headings read alike, the source gives them in different places.
# Legend:
# [1] = system: S. aureus strain expressing B. subtilis 168 TagGH; test: Growth of S. aureus RN4220 expressing B. subtilis 168 tagGH; format: cell-based, Staphylococcus aureus; details: 28° C., 12 h, OD600
# Procedure: (§1) (A) Targocil MIC data for a panel of Gram-positive strains, including MRSA clinical isolates B5271 and 5340A. Growth was monitored in triplicate after 12 h at 28° C. using optical density. (B) Two dimensional drug interaction analysis between tunicamycin and targocil grown for 18 h at 30° C. […] At higher concentrations, tunicamycin is toxic because it inhibits cell wall biosynthesis. […] Varying concentrations of drug were added to […] of S. aureus RN4220 after 5 h and cell count was monitored over time at 30° C. […] Cells were grown at 28° C. for 12 h and monitored for growth using optical density (OD600). Data were normalized to the DMSO controls for each strain. (E) Two classes of mutants were examined: phage resistant (m1 3) and phage sensitive (m4-5).
# S. aureus TarJ = target: T1, S. aureus TarJ (Staphylococcus aureus, UniProt Q2G1B9); test: In vitro enzyme inhibition assay, TarJ; format: biochemical; details: targocil 50 μg/mL
# T1 sequence (Q2G1B9 1-341): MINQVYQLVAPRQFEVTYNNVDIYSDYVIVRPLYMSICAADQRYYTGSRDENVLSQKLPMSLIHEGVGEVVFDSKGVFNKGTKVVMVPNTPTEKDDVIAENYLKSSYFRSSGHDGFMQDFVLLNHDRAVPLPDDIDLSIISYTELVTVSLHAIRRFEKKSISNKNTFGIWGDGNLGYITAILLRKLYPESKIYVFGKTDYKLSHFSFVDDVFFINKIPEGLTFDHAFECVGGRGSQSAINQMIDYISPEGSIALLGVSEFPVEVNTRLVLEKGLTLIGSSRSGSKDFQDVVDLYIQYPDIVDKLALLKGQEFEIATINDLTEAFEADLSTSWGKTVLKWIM
# [2] = system: wildtype S. aureus RN4220; test: MIC / growth inhibition of wildtype S. aureus RN4220 (optical density); format: cell-based; details: Staphylococcus aureus
# Procedure: as §1
# A library of 55,000 small molecules was screened in duplicate at a concentration of ˜40 μM against S. aureus RN4220 and the corresponding ΔtarO strain using optical density to monitor growth. We obtained 45 initial hits and confirmed three lead compounds that inhibited the growth of the wildtype strain but had no activity against the ΔtarO strain. […] (FIG. 16A and FIG. 18) (Lazarevic V, Abellan F X, Moller S B, Karamata D, & Mauel C (2002) Microbiology-Sgm 148:815-824)
# On the night before screening, a single colony of each strain was grown in TSB (Cm 10). On the day of screening, 384 well plates (Corning® 3710) were filled with […] of TSB (Cm 10). […]
# The following day the plates were read using a Perkin Elmer Envision plate reader for both OD600 and fluorescence at the appropriate wavelength for Gfp ([…]) and Mcherry ([…]). Data were collected and analyzed to identify compounds that killed the wildtype strain but not the ΔtanO mutant. […]
# For a secondary screen, hits from the primary screen were evaluated against wildtype and the ΔtarO mutant as described above, but the compound was investigated using a four point dose-response curve starting at a concentration of 50 μM and doing two-fold serial dilutions. […]
# S. aureus TarI = target: T2, S. aureus TarI (Staphylococcus aureus, UniProt Q2G1C0); test: In vitro enzyme inhibition assay, TarI (HPLC); format: biochemical; details: targocil 50 μg/mL; enzyme 200 nM
# T2 construct: made in house
# T2 sequence (Q2G1C0 1-238): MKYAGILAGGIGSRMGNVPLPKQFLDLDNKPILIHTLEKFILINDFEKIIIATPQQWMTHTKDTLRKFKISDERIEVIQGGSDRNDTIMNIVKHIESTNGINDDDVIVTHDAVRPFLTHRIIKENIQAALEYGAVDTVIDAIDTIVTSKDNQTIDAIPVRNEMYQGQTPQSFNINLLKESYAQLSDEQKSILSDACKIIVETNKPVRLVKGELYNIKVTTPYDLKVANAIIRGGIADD
# Procedure: S. aureus TarB, D, F, I, and L were cloned, overexpressed and purified as described previously (S. Brown, Y. H. Zhang, S. Walker, Chemistry & Biology 15, 12, Jan. 2008.) Radiometric in vitro assays were run to test the inhibitory effects of targocil on Tar B, D, F, and L, while TarI was assayed for targocil inhibition using an HPLC assay using conditions similar to those previously reported (ibid). See below for exact reaction conditions. […] In each case, a reaction with no targocil served as a negative control (active enzymatic reaction) and a reaction with heat-treated enzyme served as a positive control (no enzymatic reaction). Targocil was incubated with all reaction components except the substrates at room temperature. After 10 minutes, substrates were added and the reactions were allowed to proceed for 60 minutes. The reactions were quenched with DMF and the products were imaged/monitored as previously described (ibid).
# TarI in vitro inhibition assay protocol and data. […] The reactions were monitored by HPLC using an anion exchange column, Phenosphere 5μ SAX 250×4.6 mm, 5 μm (Phenomenex), to record the disappearance of the CTP peak and production of a new CDP ribitol peak (Buffer A: 5 mM NH4H2PO4, pH 2.8, Buffer B: 750 mM NH4H2PO4, pH 3.7, isocratic elution 75% B over 20 minutes, UV monitored at 271 nm).
smiles,measurement,setting,value
"CCN(CC)c1nc2c(S(=O)(=O)c3ccccc3)nnn2c2ccc(Cl)cc12 [7-chloro-N,N-diethyl-3-(phenylsulfonyl)-[1,2,3]triazolo[1,5-a]quinazolin-5-amine]",resistance to targocil of strain expressing B. subtilis 168 TagGH,[1],fully resistant; also recorded: complete resistance
same,inhibition of TarJ,S. aureus TarJ,None of these enzymes was inhibited
same,MIC,[2]; read-out: minimum inhibitory concentration (MIC),1.3 µg/mL
same,MIC,"[2]; result of the WTA inhibitor screen, read-out: minimum inhibitory concentration",~3 µM
same,MIC,"[2]; wildtype S. aureus RN4220, read-out: minimum inhibitory concentration (MIC)",3 µM
same,inhibition of TarI,S. aureus TarI,None of these enzymes was inhibited

# From US8598342B2, “Methods and compounds for antimicrobial intervention” (President and Fellows of Harvard College, priority 2008, dated 2013)
